The assay has as its system SIVMac251. The assay is described as follows: PBMC antiviral assay, SIVMac251. Type of assay: cell-based, SIV. The note with it: SIVMac251, human PBMCs. Here is the method:
Compounds SA-101A and SA-101B were tested for antiviral activity against HIV-1 in peripheral blood mononuclear cells (PBMC) acutely infected with the HIV-1 isolates. PBMCs were derived from normal HIV-1 negative donors, and cultured under conditions which promote cell survival and HIV replication. Fresh human blood was obtained commercially from Biological Specialty Corporation (Colmar, Pa.). The low passage clinical isolates HIV-1Ba-L, HIVIIIB, and SIVmac251 were from the NIAID AIDS Research and Reference Reagent Program. Immediately before use, pre-titered aliquot of the viruses were removed from storage in a freezer (−80° C.) and thawed rapidly to room temperature in a biological safety cabinet. Phytohemagglutinin (PHA-P) was obtained from Sigma (St. Louis, Mo.) and recombinant IL-2 was obtained from R&D Systems Inc. (Minneapolis, Minn.). Antiviral activity was tested from a high-test concentration of 100 μM or 100 μg/ml with nine ½-log serial dilutions of the compound to derive applicable IC50 (concentration inhibition virus replication by 50%), IC90 (concentration inhibition virus replication by 90%), TC50 (concentration decreasing cell viability by 50%) and TI (therapeutic index: TC50/IC50) values.
Preparation of PMBC. Fresh Human PBMCs, Seronegative for HIV and HBV, were isolated from screened donors (Interstate Blood Bank, Inc. Memphis, Tenn.). Cells were pelleted/washed 2-3 times by low speed centrifugation and resuspensded in PBS to remove contaminating platelets. The leukophoresed blood was then diluted 1:1 with Dulbecco's Phosphate Buffered Saline (DPBS) and layered over 14 mL of Lymphocyte Separation Medium (LSM; Cellgro® by Mediatech, Inc.; density 1.078+/−0.002 g/ml; Cat. # 85-072-CL) in a 50 mL centrifuge tube and then centrifuged for 30 minutes at 600×g. […]
PMBC assay. […] Pooling (mixing) of mononuclear cells from more than one donor is used to minimize the variability observed between individual donors, which results from quantitative and qualitative differences in HIV infection and overall response to the PHA and IL-2 of primary lymphocyte populations. […]

Molecules are shown by their SMILES. Converted amounts (≈) assume the structure as drawn. Like-named read-outs stand apart in the source and are kept apart here. A value given as a limit tells only on which side of the number the result lay.

The IC50 is the concentration at which inhibition is half-maximal. A word on the IC90: it is the concentration needed for an effect of 90%. With `CC(=O)O[C@@]12C[C@@H](C)[C@@]3(O)[C@@H](C=C(CO)C[C@]4(O)C(=O)C(C)=C[C@@H]34)[C@@H]1C2(C)C` [SA-101A, 12-deoxyphorbol 13-acetate], 0.39 µg/mL (≈ 0.999 µM) corresponded to half-maximal inhibition (Simian immunodeficiency virus, PBMC) (IC50). Besides, the 90% effect concentration (IC90) (Simian immunodeficiency virus, PBMC, read-out: IC90) came out at 0.9 µg/mL (≈ 2.3 µM).
In turn, `CC(=O)OC12CC(C)C3(O)C(C=C(COC(=O)CCC(=O)O)CC4(O)C(=O)C(C)=CC43)C1C2(C)C` (stereo not drawn) [SA-101B, Prostratin Succinate] yielded an IC90 (40% Human AB serum) of more than 1.00 µg/mL.

(Values after patent US8022103B2, “Ester prodrugs of prostratin and related phorbol compounds” (Salvia Sciences, Inc., priority 2005, dated 2011).)
